# In PubChem BioAssay (NCI):
#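 Step 1: Grow cells in 96-well plates. Step 2: Expose to compound for 48 hours at 5 concentrations. Step 3: Interpolate endpoints linearly; if unreached, use highest concentration. At the GI50, growth is halved. The concentration for full growth arrest is given as TGI.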
# Assays:
# Test in all cases: NCI anticancer screen, dose series, 48 h
# 786-0 renal = system: 786-0 renal
# A498 renal = system: A498 renal
# A549 NSCLC = system: A549 NSCLC
# ACHN renal = system: ACHN renal
# BT-549 breast = system: BT-549 breast
# CAKI-1 renal = system: CAKI-1 renal
# CCRF-CEM leukemia = system: CCRF-CEM leukemia
# COLO 205 colon = system: COLO 205 colon
# DU-145 prostate = system: DU-145 prostate
# EKVX NSCLC = system: EKVX NSCLC
# HCC-2998 colon = system: HCC-2998 colon
# HCT-116 colon = system: HCT-116 colon
# HCT-15 colon = system: HCT-15 colon
# HL-60(TB) leukemia = system: HL-60(TB) leukemia
# HOP-62 NSCLC = system: HOP-62 NSCLC
# HOP-92 NSCLC = system: HOP-92 NSCLC
# HS 578T breast = system: HS 578T breast
# HT29 colon = system: HT29 colon
# IGROV1 ovarian = system: IGROV1 ovarian
# K-562 leukemia = system: K-562 leukemia
# KM12 colon = system: KM12 colon
# LOX IMVI melanoma = system: LOX IMVI melanoma
# M14 melanoma = system: M14 melanoma
# MALME-3M melanoma = system: MALME-3M melanoma
# MCF7 breast = system: MCF7 breast
# MDA-MB-435 = system: MDA-MB-435
# MDA-MB-468 breast = system: MDA-MB-468 breast
# MOLT-4 leukemia = system: MOLT-4 leukemia
# NCI-H226 lung = system: NCI-H226 lung
# NCI-H23 lung = system: NCI-H23 lung
# NCI-H460 lung = system: NCI-H460 lung
# NCI-H522 lung = system: NCI-H522 lung
# NCI/ADR-RES ovarian = system: NCI/ADR-RES ovarian
# OVCAR-3 ovarian = system: OVCAR-3 ovarian
# OVCAR-4 ovarian = system: OVCAR-4 ovarian
# OVCAR-5 ovarian = system: OVCAR-5 ovarian
# OVCAR-8 ovarian = system: OVCAR-8 ovarian
# PC-3 prostate = system: PC-3 prostate
# RPMI-8226 leukemia = system: RPMI-8226 leukemia
# RXF 393 renal = system: RXF 393 renal
# SF-268 CNS = system: SF-268 CNS
# SF-295 CNS = system: SF-295 CNS
# SF-539 CNS = system: SF-539 CNS
# SK-MEL-28 melanoma = system: SK-MEL-28 melanoma
# SK-MEL-5 melanoma = system: SK-MEL-5 melanoma
# SK-OV-3 ovarian = system: SK-OV-3 ovarian
# SN12C renal = system: SN12C renal
# SNB-19 CNS = system: SNB-19 CNS
# SR leukemia = system: SR leukemia
# SW-620 colon = system: SW-620 colon
# T-47D breast = system: T-47D breast
# TK-10 renal = system: TK-10 renal
# U251 CNS = system: U251 CNS
# UACC-257 melanoma = system: UACC-257 melanoma
# UACC-62 melanoma = system: UACC-62 melanoma
smiles,measurement,setting,value
CC[C@]12C=CCN3CC[C@@]4(c5ccc(OC)cc5N(C)[C@H]4[C@@](O)(C(=O)OC)[C@@H]1OC(=O)CCC[P+](C1CCCCC1)(C1CCCCC1)C1CCCCC1)[C@@H]32,GI50,786-0 renal,4.45 µM
same,TGI,786-0 renal,16.7 µM
same,GI50,A498 renal,12.4 µM
same,TGI,A498 renal,26.2 µM
same,GI50,A549 NSCLC,3.46 µM
same,TGI,A549 NSCLC,13.7 µM
same,GI50,ACHN renal,15.2 µM
same,TGI,ACHN renal,28.6 µM
same,GI50,BT-549 breast,2.44 µM
same,TGI,BT-549 breast,5.82 µM
same,GI50,CAKI-1 renal,16.4 µM
same,TGI,CAKI-1 renal,30.3 µM
same,GI50,CCRF-CEM leukemia,1.69 µM
same,TGI,CCRF-CEM leukemia,11.6 µM
same,GI50,COLO 205 colon,0.43 µM
same,TGI,COLO 205 colon,1.44 µM
same,GI50,DU-145 prostate,3.75 µM
same,TGI,DU-145 prostate,15.2 µM
same,GI50,EKVX NSCLC,3.09 µM
same,TGI,EKVX NSCLC,16 µM
same,GI50,HCC-2998 colon,1.7 µM
same,TGI,HCC-2998 colon,7.68 µM
same,GI50,HCT-116 colon,2.85 µM
same,TGI,HCT-116 colon,11.4 µM
same,GI50,HCT-15 colon,15.3 µM
same,TGI,HCT-15 colon,29.2 µM
same,GI50,HL-60(TB) leukemia,0.322 µM
same,TGI,HL-60(TB) leukemia,1.34 µM
same,GI50,HOP-62 NSCLC,3.68 µM
same,TGI,HOP-62 NSCLC,13.7 µM
same,GI50,HOP-92 NSCLC,1.01 µM
same,TGI,HOP-92 NSCLC,4.03 µM
same,GI50,HS 578T breast,2.45 µM
same,TGI,HS 578T breast,7.91 µM
same,GI50,HT29 colon,1.88 µM
same,TGI,HT29 colon,4.05 µM
same,GI50,IGROV1 ovarian,1.39 µM
same,TGI,IGROV1 ovarian,5.28 µM
same,GI50,K-562 leukemia,1.32 µM
same,TGI,K-562 leukemia,12.5 µM
same,GI50,KM12 colon,1.63 µM
same,TGI,KM12 colon,4.08 µM
same,GI50,LOX IMVI melanoma,2.88 µM
same,TGI,LOX IMVI melanoma,10.5 µM
same,GI50,M14 melanoma,1.92 µM
same,TGI,M14 melanoma,8.29 µM
same,GI50,MALME-3M melanoma,1.46 µM
same,TGI,MALME-3M melanoma,3.26 µM
same,GI50,MCF7 breast,1.19 µM
same,TGI,MCF7 breast,7.67 µM
same,GI50,MDA-MB-435,1.83 µM
same,TGI,MDA-MB-435,5.33 µM
same,GI50,MDA-MB-468 breast,0.313 µM
same,TGI,MDA-MB-468 breast,1.29 µM
same,GI50,MOLT-4 leukemia,2.16 µM
same,TGI,MOLT-4 leukemia,6.51 µM
same,GI50,NCI-H226 lung,4.06 µM
same,TGI,NCI-H226 lung,17.2 µM
same,GI50,NCI-H23 lung,2.31 µM
same,TGI,NCI-H23 lung,8.3 µM
same,GI50,NCI-H460 lung,2.77 µM
same,TGI,NCI-H460 lung,11.3 µM
same,GI50,NCI-H522 lung,0.688 µM
same,TGI,NCI-H522 lung,4.98 µM
same,GI50,NCI/ADR-RES ovarian,35.6 µM
same,TGI,NCI/ADR-RES ovarian,> 100 µM
same,GI50,OVCAR-3 ovarian,1.74 µM
same,TGI,OVCAR-3 ovarian,9.08 µM
same,GI50,OVCAR-4 ovarian,2.39 µM
same,TGI,OVCAR-4 ovarian,12.4 µM
same,GI50,OVCAR-5 ovarian,3.19 µM
same,TGI,OVCAR-5 ovarian,12 µM
same,GI50,OVCAR-8 ovarian,2.97 µM
same,TGI,OVCAR-8 ovarian,11.7 µM
same,GI50,PC-3 prostate,1.71 µM
same,TGI,PC-3 prostate,11.4 µM
same,GI50,RPMI-8226 leukemia,0.383 µM
same,TGI,RPMI-8226 leukemia,2.22 µM
same,GI50,RXF 393 renal,1.47 µM
same,TGI,RXF 393 renal,5.04 µM
same,GI50,SF-268 CNS,3.23 µM
same,TGI,SF-268 CNS,13 µM
same,GI50,SF-295 CNS,4.41 µM
same,TGI,SF-295 CNS,16.5 µM
same,GI50,SF-539 CNS,2.94 µM
same,TGI,SF-539 CNS,10.7 µM
same,GI50,SK-MEL-28 melanoma,1.08 µM
same,TGI,SK-MEL-28 melanoma,2.76 µM
same,GI50,SK-MEL-5 melanoma,1.76 µM
same,TGI,SK-MEL-5 melanoma,3.28 µM
same,GI50,SK-OV-3 ovarian,2.59 µM
same,TGI,SK-OV-3 ovarian,7.57 µM
same,GI50,SN12C renal,2.89 µM
same,TGI,SN12C renal,10.1 µM
same,GI50,SNB-19 CNS,2.22 µM
same,TGI,SNB-19 CNS,11.5 µM
same,GI50,SR leukemia,1.35 µM
same,TGI,SR leukemia,4.01 µM
same,GI50,SW-620 colon,2.95 µM
same,TGI,SW-620 colon,14.6 µM
same,GI50,T-47D breast,1.32 µM
same,TGI,T-47D breast,11.4 µM
same,GI50,TK-10 renal,2.73 µM
same,TGI,TK-10 renal,12.1 µM
same,GI50,U251 CNS,0.746 µM
same,TGI,U251 CNS,11.8 µM
same,GI50,UACC-257 melanoma,1.26 µM
same,TGI,UACC-257 melanoma,3.34 µM
same,GI50,UACC-62 melanoma,1.41 µM
same,TGI,UACC-62 melanoma,3.06 µM
